Results reported in US10329316B2, “Phenylpropanoid compound and preparation method and use thereof” (QIANJIN PHARMACEUTICAL CO., LTD., priority 2016, dated 2019).
“Also recorded” adds a separate entry of the source.

Assays:
[1] = system: IL-6; test: Measurement of inflammatory factor IL-6 in LPS-stimulated Raw 264.7 cells (ELISA kit); format: cell-based, mouse; conditions: at various concentrations; LPS 30 μg/ml 24 h; p>0.05; FIG. 5
Method: (§1) Mouse IL-1-beta ELISA kit, batch number: 2014/06 (96T), Mouse IL-6 ELISA kit, batch number: 2014/06 (96T), Mouse tumor necrosis factor-alpha (TNF-α) ELISA kit, batch number: 2014/06 (96T), Mouse NO ELISA Kit Batch number: 2014/10 (96T), mouse hydroxyl radical (OH) ELISA detection kit, batch number: 2014/10 (96T).
(§2) Raw 264.7 cells were inoculated on a 96-well plate for 24 hours, then synchronized for 24 hours. The cells were treated with different concentration of medicine for 2 hours, and then stimulated with LPS (30 μg/ml) for 24 hours. Lastly, supernatant was collected and centrifuged for 5 minutes at 10,000 rpm. The supernatant was separated and stored at −80° C. for reserve. The concentration of NO was determined by mouse NO kit.
(§3) Sample prepared in at 1.5 was used for subsequent inflammatory factor determination. The amount of TNF-α, IL-1β, IL-6 produced by cells was measured by mouse TNF-α, IL-1β, and IL-6 kit.

[2] = system: Raw 264.7 cells; test: Determination of cell vitality by MTT method; format: cell-based, mouse; conditions: 1.37 to 12.37 μg/ml, 2 h medicine, then LPS 30 μg/ml 24 h, FIG. 1
Method: (§4) Medicine was first dissolved in a small amount of DMSO, and then diluted to a certain concentration with DMEM, so that final concentration of DMSO was less than 1%.
(§5) Raw 264.7 mouse macrophages were incubated in DMEM medium containing 10% heat-inactivated fetal bovine serum (FBS), 10 U/mL penicillin sodium and 100 μg/ml streptomycin, and incubated in 37° C., 5% CO2 incubator.
Cell vitality was determined by MTT method. Cell suspension liquid was inoculated into a 96-well plate (1*104 holes/pore) to incubate for 24 hours and then synchronize for 24 hours. The cells were treated with different concentration of medicine for 2 hours, and then stimulated by LPS (30 μg/ml) for 24 hours. Original medium was abandoned, and MTT (0.5 mg/ml) was added into each hole for 4 hours. The medium was then abandoned and DMSO ([…]) was added into each hole. Absorbance was measured at 490 nm after shaking for 10 min.

[3] = system: TNF-α; test: Measurement of inflammatory factor TNF-α in LPS-stimulated Raw 264.7 cells (ELISA kit); format: cell-based, mouse; conditions: 6.88±12.38 μg/ml (6.88 to 12.38 μg/mL), LPS 30 μg/ml 24 h, p<0.05, dose-dependent, FIG. 3
Method: as §1, §2, §3

[4] = system: IL-1β; test: Measurement of inflammatory factor IL-1β in LPS-stimulated Raw 264.7 cells (ELISA kit); format: cell-based, mouse; conditions: at various concentrations; LPS 30 μg/ml 24 h; p>0.05; FIG. 4
Method: as §1, §2, §3

[5] = system: hydroxyl radical (OH); test: Determination of OH concentration in LPS-stimulated Raw 264.7 cells (OH kit); format: cell-based, mouse; conditions: 4.13-12.38 μg/ml, LPS 30 μg/ml 24 h, dose-dependent
Method: as §1, §2
Sample prepared at 1.5 was used for OH factor determination. The concentration was determined by OH kit.

[6] = system: NO; test: Determination of NO concentration in LPS-stimulated Raw 264.7 cells (mouse NO kit); format: cell-based; conditions: 6.88±12.38 μg/ml (6.88 to 12.38 μg/mL), LPS 30 μg/ml 24 h, dose-dependent
Method: as §4, §5, §2

O=C(CCO)Oc1cc(O)c(OC2OC(CO)C(O)C(O)C2O)c(O)c1 (stereo not drawn) [MM-125]
inhibition of production of IL-6 in Raw 264.7 cells [1]: could not inhibit; also recorded: no obvious inhibitory effect | effect on vitality of Raw 264.7 cells [2]: no significant effect | inhibition of production of TNF-α in Raw 264.7 cells [3]: significantly inhibit; also recorded: certain level of inhibiting effects | inhibition of production of TNF-α in Raw 264.7 cells ([3]; listed as phenylpropanoid compound): significantly inhibit | inhibition of production of IL-1β in Raw 264.7 cells [4]: could not inhibit; also recorded: no obvious inhibitory effect | inhibition of the increase of OH concentration induced by LPS ([5]; FIG. 6): significantly inhibit; also recorded: significant inhibitory effects | inhibition of the increase of OH concentration induced by LPS ([5]; FIG. 6, listed as phenylpropanoid compound): significant effect on inhibiting | inhibition of the increase of NO concentration induced by LPS ([6]; FIG. 2): significantly inhibit; also recorded: significant inhibitory effects | inhibition of the increase of NO concentration induced by LPS ([6]; FIG. 2, listed as phenylpropanoid compound): significant effect on inhibiting
